Earlier results as cited in patent publication US20250152568A1, “METHODS OF TREATING COMPLEX REGIONAL PAIN SYNDROME” (Aisa Pharma, Inc., priority 2022, published 2025).

Target: Nav 1.7 sodium channel (Homo sapiens, UniProt Q15858)
Conditions: 20 mg dose of cilnidipine vs 1800 mg dose of gabapentin; see WO2021/178903

Chain of Nav 1.7 sodium channel (Q15858 whole entry): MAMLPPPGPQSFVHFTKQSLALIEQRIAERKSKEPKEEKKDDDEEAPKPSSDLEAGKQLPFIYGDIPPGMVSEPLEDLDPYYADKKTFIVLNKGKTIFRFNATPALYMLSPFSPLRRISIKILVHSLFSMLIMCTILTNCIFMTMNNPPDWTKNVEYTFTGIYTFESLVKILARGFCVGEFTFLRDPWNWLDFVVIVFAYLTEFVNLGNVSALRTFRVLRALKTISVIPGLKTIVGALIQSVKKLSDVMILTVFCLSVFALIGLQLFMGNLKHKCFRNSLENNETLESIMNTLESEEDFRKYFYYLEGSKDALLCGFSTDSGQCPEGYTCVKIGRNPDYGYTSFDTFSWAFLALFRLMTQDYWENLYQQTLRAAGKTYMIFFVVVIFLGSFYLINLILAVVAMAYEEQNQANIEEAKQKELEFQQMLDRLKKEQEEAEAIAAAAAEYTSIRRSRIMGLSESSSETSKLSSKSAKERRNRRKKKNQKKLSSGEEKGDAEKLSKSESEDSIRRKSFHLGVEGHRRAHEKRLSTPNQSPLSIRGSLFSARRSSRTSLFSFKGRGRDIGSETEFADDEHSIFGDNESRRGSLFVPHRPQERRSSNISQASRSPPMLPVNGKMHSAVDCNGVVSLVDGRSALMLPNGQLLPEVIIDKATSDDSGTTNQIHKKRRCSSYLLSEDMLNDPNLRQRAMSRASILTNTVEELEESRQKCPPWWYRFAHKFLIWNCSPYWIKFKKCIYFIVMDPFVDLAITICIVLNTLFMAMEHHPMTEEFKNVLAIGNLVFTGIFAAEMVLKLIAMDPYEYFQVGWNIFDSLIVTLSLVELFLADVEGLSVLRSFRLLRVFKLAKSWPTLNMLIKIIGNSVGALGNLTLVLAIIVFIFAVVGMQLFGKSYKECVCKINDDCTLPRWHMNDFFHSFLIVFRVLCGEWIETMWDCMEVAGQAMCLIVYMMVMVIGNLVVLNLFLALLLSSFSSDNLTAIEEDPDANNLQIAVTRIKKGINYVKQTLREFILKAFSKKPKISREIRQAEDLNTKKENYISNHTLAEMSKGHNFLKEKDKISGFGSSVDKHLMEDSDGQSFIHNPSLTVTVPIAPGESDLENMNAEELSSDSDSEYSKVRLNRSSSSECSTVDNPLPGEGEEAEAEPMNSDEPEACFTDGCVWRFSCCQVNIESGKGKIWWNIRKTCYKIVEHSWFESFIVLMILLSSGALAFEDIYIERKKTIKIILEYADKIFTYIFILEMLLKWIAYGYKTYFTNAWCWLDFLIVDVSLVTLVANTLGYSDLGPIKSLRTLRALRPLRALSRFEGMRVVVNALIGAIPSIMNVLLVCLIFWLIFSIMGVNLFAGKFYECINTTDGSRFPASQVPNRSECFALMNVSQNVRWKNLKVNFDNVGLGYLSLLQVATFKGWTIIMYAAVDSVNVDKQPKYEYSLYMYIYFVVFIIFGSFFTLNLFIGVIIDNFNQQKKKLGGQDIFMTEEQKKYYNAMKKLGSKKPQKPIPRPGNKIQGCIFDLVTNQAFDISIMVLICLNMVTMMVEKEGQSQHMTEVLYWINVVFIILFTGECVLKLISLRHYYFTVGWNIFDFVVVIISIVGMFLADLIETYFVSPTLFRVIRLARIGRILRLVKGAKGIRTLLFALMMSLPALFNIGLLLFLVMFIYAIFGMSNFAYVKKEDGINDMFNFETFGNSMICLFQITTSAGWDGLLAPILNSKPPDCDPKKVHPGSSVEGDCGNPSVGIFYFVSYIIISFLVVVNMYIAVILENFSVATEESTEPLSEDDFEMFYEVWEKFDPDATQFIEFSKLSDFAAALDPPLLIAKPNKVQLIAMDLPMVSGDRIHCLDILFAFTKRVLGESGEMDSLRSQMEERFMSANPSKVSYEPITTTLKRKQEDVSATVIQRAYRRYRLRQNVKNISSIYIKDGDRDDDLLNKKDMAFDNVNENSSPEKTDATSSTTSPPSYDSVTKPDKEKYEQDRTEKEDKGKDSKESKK

inhibition of Nav 1.7 compared to an 1800 mg dose of gabapentin: > 6 fold
Compound: COCCOC(=O)C1=C(C)NC(C)=C(C(=O)OC/C=C/c2ccccc2)C1c1cccc([N+](=O)[O-])c1 (stereo not shown) [cilnidipine]
